Results reported in ChEMBL document CHEMBL1806408, “Design-driven LO: the discovery of new ultra long acting dibasic β2-adrenoceptor agonists” (Bioorg Med Chem Lett, 2011).

System: not listed separately
Test: Selectivity ratio of IC50 for dopamine 2 receptor over EC50 for human adrenergic beta2 receptor
Settings: not given

Compared with `CN(CCOCCCNC[C@H](O)c1ccc(O)c2[nH]c(=O)sc12)CCc1ccccc1`, `O=c1[nH]c2c(O)ccc([C@@H](O)CNCCCOCCNCCc3cccc(Cl)c3)c2s1` is higher in Ratio IC50/EC50: 794 for the first, > 14100 for the second.

Compared with `O=c1[nH]c2c(O)ccc([C@@H](O)CNCCCSCCNCCc3cccc(Cl)c3Cl)c2s1`, `O=c1[nH]c2c(O)ccc([C@@H](O)CNCCCOCCNCCc3cccc(Cl)c3Cl)c2s1` is higher in Ratio IC50/EC50: 562 for the first, 2510 for the second.

First: NC(=O)C(c1ccccc1)(c1ccccc1)[C@@H]1CCN(CCc2ccc3c(c2)CCO3)C1 [DARIFENACIN]
Second: O=c1[nH]c2c(O)ccc(CCNCCS(=O)(=O)CCCOCCc3ccccc3)c2s1 [SIBENADET]
The Ratio IC50/EC50 of the first is higher: 1860 for the first, 141 for the second.

In the case of `O=c1[nH]c2c(O)ccc([C@@H](O)CNCC[S+]([O-])CCCNCCc3cccc(Cl)c3)c2s1` (some centres undefined), the Ratio IC50/EC50 is reported as > 560.

System: not listed separately
Test: Selectivity ratio of IC50 for adrenergic beta1 receptor over EC50 for human adrenergic beta2 receptor
Settings: not given

First: CN(CCOCCCNC[C@H](O)c1ccc(O)c2[nH]c(=O)sc12)CCc1ccccc1
Second: O=c1[nH]c2c(O)ccc([C@@H](O)CNCCCOCCNCCc3cccc(Cl)c3)c2s1
The Ratio IC50/EC50 of the first is higher: 150 for the first, 45 for the second.

Compared with `O=c1[nH]c2c(O)ccc([C@@H](O)CNCCCSCCNCCc3cccc(Cl)c3Cl)c2s1`, `O=c1[nH]c2c(O)ccc([C@@H](O)CNCCCOCCNCCc3cccc(Cl)c3Cl)c2s1` is higher in Ratio IC50/EC50: 45 for the first, 63 for the second.

Compared with `NC(=O)C(c1ccccc1)(c1ccccc1)[C@@H]1CCN(CCc2ccc3c(c2)CCO3)C1` [DARIFENACIN], `O=c1[nH]c2c(O)ccc(CCNCCS(=O)(=O)CCCOCCc3ccccc3)c2s1` [SIBENADET] is higher in Ratio IC50/EC50: 21 for the first, > 14000 for the second.

`O=c1[nH]c2c(O)ccc([C@@H](O)CNCC[S+]([O-])CCCNCCc3cccc(Cl)c3)c2s1` (some centres undefined) gave a Ratio IC50/EC50 of 26.

System: not listed separately
Test: Oral bioavailability in rat
Assay type: ADME, organism-based
Settings: in vivo

In the case of `O=c1[nH]c2c(O)ccc([C@@H](O)CNCCSCCCNCCc3ccccc3Cl)c2s1`, the bioavailability is reported as < 1%.

System: Cavia porcellus
Test: Bronchodilatory activity in intratracheally dosed guinea pig assessed as inhibition of histamine-induced bronchoconstriction
Settings: inhaled or nasal

Compared with `NC(=O)C(c1ccccc1)(c1ccccc1)[C@@H]1CCN(CCc2ccc3c(c2)CCO3)C1` [DARIFENACIN], `O=c1[nH]c2c(O)ccc(CCNCCS(=O)(=O)CCCOCCc3ccccc3)c2s1` [SIBENADET] is 2-fold lower in ED80: 14 µg/kg for the first, 7 µg/kg for the second.

Going from `O=c1[nH]c2c(O)ccc([C@@H](O)CNCCSCCCNCCc3ccccc3Cl)c2s1` to `OCc1cc(C(O)CNCCCCCCOCCCCc2ccccc2)ccc1O` (centres undefined) [SALMETEROL], the ED80 falls from 7 µg/kg to 1 µg/kg (7-fold).

System: Cavia porcellus
Test: Bronchodilatory activity in intratracheally dosed guinea pig assessed as inhibition of histamine-induced bronchoconstriction after 24 hrs
Assay type: functional
Settings: not given

With `O=c1[nH]c2c(O)ccc([C@@H](O)CNCCSCCCNCCc3ccccc3Cl)c2s1` the “inhibition (INH)” value was 49%.

System: not listed separately
Test: Selectivity ratio of EC50 for human adrenergic beta2 receptor to EC50 for adrenergic beta1 receptor
Settings: not given

Compared with `CN(CCOCCCNC[C@H](O)c1ccc(O)c2[nH]c(=O)sc12)CCc1ccccc1`, `O=c1[nH]c2c(O)ccc([C@@H](O)CNCCCOCCNCCc3cccc(Cl)c3)c2s1` is higher in Ratio EC50: 79 for the first, 100 for the second.

Going from `O=c1[nH]c2c(O)ccc([C@@H](O)CNCCCSCCNCCc3cccc(Cl)c3Cl)c2s1` to `O=c1[nH]c2c(O)ccc([C@@H](O)CNCCCOCCNCCc3cccc(Cl)c3Cl)c2s1`, the Ratio EC50 rises from 35 to 178.

Going from `NC(=O)C(c1ccccc1)(c1ccccc1)[C@@H]1CCN(CCc2ccc3c(c2)CCO3)C1` [DARIFENACIN] to `O=c1[nH]c2c(O)ccc([C@@H](O)CNCC[S+]([O-])CCCNCCc3cccc(Cl)c3)c2s1` (some centres undefined), the Ratio EC50 rises from 2 to 8.

Molecular target: D(2) dopamine receptor (Homo sapiens, UniProt P14416)
Test: not given
Settings: not given

D(2) dopamine receptor, sequence (P14416 whole entry): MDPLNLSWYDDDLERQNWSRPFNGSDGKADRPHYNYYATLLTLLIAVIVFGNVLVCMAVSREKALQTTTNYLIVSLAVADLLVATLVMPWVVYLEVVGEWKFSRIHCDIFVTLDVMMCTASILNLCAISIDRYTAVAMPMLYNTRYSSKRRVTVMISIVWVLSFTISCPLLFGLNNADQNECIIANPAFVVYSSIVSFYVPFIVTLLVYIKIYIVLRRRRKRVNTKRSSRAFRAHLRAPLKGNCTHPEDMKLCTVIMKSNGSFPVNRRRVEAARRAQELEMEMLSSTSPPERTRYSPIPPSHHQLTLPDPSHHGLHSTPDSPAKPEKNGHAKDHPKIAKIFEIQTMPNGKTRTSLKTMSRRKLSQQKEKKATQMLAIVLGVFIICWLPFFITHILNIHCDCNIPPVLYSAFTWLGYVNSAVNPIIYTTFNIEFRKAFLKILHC

`CN(CCOCCCNC[C@H](O)c1ccc(O)c2[nH]c(=O)sc12)CCc1ccccc1` and `O=c1[nH]c2c(O)ccc([C@@H](O)CNCCSCCCOCCc3ccccc3)c2s1` cannot be ordered by IC50: 2510 nM for the first, > 1000 nM for the second.

`O=c1[nH]c2c(O)ccc([C@@H](O)CNCCCSCCNCCc3cccc(Cl)c3Cl)c2s1` and `O=c1[nH]c2c(O)ccc([C@@H](O)CNCCCSCCNCCc3ccccc3Cl)c2s1` are the same in IC50: 1000 nM for the first, 1000 nM for the second.

First: O=c1[nH]c2c(O)ccc([C@@H](O)CNCCCSCCNCCc3cccc(Cl)c3)c2s1
Second: O=c1[nH]c2c(O)ccc([C@@H](O)CNCCCOCCNCCc3cccc(Cl)c3)c2s1
The IC50 of the first is lower: 1580 nM for the first, > 2510 nM for the second. The first is the more potent here.

First: O=c1[nH]c2c(O)ccc([C@@H](O)CNCC[S+]([O-])CCCNCCc3cccc(Cl)c3)c2s1 (some centres undefined)
Second: O=c1[nH]c2c(O)ccc([C@@H](O)CNCCS(=O)(=O)CCCNCCc3cccc(Cl)c3)c2s1
The IC50 of the first is higher: > 3160 nM for the first, 794 nM for the second. The second is the more potent here.

First: O=c1[nH]c2c(O)ccc(CCNCCS(=O)(=O)CCCOCCc3ccccc3)c2s1 [SIBENADET]
Second: O=c1[nH]c2c(O)ccc([C@@H](O)CNCCCOCCNCCc3cccc(Cl)c3Cl)c2s1
The IC50 of the first is 20-fold lower: 100 nM for the first, 2000 nM for the second.

Molecular target: Beta-2 adrenergic receptor (Homo sapiens, UniProt P07550)
Test: not given
Settings: not given

Beta-2 adrenergic receptor, sequence (P07550 whole entry): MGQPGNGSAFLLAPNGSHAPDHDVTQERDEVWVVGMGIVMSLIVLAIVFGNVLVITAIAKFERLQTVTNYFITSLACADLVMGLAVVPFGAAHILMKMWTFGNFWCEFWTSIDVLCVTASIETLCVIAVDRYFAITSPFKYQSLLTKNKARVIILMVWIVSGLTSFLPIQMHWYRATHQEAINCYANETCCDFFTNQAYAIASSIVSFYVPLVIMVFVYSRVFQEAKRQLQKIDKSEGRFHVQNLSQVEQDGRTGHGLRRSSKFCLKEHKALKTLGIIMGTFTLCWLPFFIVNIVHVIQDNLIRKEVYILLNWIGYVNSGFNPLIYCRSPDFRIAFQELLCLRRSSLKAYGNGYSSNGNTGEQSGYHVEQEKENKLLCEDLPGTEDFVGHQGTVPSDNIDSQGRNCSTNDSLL

Going from `CN(CCOCCCNC[C@H](O)c1ccc(O)c2[nH]c(=O)sc12)CCc1ccccc1` to `O=c1[nH]c2c(O)ccc([C@@H](O)CNCCCOCCNCCc3cccc(Cl)c3)c2s1`, the EC50 falls from 2.51 nM to 0.2 nM (13-fold).

First: O=c1[nH]c2c(O)ccc([C@@H](O)CNCCCSCCNCCc3cccc(Cl)c3Cl)c2s1
Second: O=c1[nH]c2c(O)ccc([C@@H](O)CNCC[S+]([O-])CCCNCCc3cccc(Cl)c3)c2s1 (some centres undefined)
The EC50 of the first is 3.2-fold lower: 1.58 nM for the first, 5.01 nM for the second. The first is the more potent here.

Work on `O=c1[nH]c2c(O)ccc(CCNCCS(=O)(=O)CCCOCCc3ccccc3)c2s1` [SIBENADET] yielded an EC50 of 0.631 nM.

Molecular target: T1, Beta-1 adrenergic receptor (Homo sapiens, UniProt P08588)
Test: not given
Settings: not given

T1 sequence (P08588 whole entry): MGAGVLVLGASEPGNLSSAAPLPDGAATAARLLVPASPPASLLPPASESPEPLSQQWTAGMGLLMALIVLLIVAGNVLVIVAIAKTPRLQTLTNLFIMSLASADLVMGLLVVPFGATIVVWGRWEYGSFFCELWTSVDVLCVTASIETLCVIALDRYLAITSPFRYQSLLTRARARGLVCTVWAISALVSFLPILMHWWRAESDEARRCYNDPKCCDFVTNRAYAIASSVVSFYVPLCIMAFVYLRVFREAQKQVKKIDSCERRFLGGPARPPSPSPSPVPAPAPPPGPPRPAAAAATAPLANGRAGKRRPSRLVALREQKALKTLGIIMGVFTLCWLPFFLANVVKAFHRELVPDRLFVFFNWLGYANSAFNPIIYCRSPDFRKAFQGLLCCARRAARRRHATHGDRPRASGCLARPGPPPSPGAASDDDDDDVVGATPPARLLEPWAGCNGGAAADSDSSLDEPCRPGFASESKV

First: CN(CCOCCCNC[C@H](O)c1ccc(O)c2[nH]c(=O)sc12)CCc1ccccc1
Second: O=c1[nH]c2c(O)ccc([C@@H](O)CNCCCOCCNCCc3cccc(Cl)c3)c2s1
The IC50 of the first is 6.3-fold higher: 398 nM for the first, 63.1 nM for the second. The second is the more potent here.

Compared with `O=c1[nH]c2c(O)ccc([C@@H](O)CNCCCSCCNCCc3cccc(Cl)c3Cl)c2s1`, `O=c1[nH]c2c(O)ccc([C@@H](O)CNCCCOCCNCCc3cccc(Cl)c3Cl)c2s1` is 1.6-fold lower in IC50: 79.4 nM for the first, 50.1 nM for the second. The second is the more potent here.

Compared with `O=c1[nH]c2c(O)ccc([C@@H](O)CNCC[S+]([O-])CCCNCCc3cccc(Cl)c3)c2s1` (some centres undefined), `O=c1[nH]c2c(O)ccc(CCNCCS(=O)(=O)CCCOCCc3ccccc3)c2s1` [SIBENADET] is higher in IC50: 158 nM for the first, > 10000 nM for the second.

Molecular target: T1, Beta-1 adrenergic receptor
Test: not given
Settings: not given
Remark: another data set of the same source

Going from `CN(CCOCCCNC[C@H](O)c1ccc(O)c2[nH]c(=O)sc12)CCc1ccccc1` to `O=c1[nH]c2c(O)ccc([C@@H](O)CNCCCSCCCOCCc3ccccc3)c2s1`, the EC50 falls from 200 nM to 3.98 nM (50-fold).

Going from `O=c1[nH]c2c(O)ccc([C@@H](O)CNCCCSCCNCCc3cccc(Cl)c3Cl)c2s1` to `O=c1[nH]c2c(O)ccc([C@@H](O)CNCCCSCCNCCc3ccccc3Cl)c2s1`, the EC50 falls from 63.1 nM to 39.8 nM (1.6-fold).

`O=c1[nH]c2c(O)ccc([C@@H](O)CNCCCOCCNCCc3cccc(Cl)c3)c2s1` and `O=c1[nH]c2c(O)ccc([C@@H](O)CNCC[S+]([O-])CCCNCCc3cccc(Cl)c3)c2s1` (some centres undefined) are the same in EC50: 39.8 nM for the first, 39.8 nM for the second.

`O=c1[nH]c2c(O)ccc([C@@H](O)CNCCCOCCNCCc3cccc(Cl)c3Cl)c2s1` gave an EC50 of 158 nM.

System: not listed separately
Test: in vivo
Settings: rat, plasma, iv

First: O=c1[nH]c2c(O)ccc([C@@H](O)CNCCCSCCOCCc3cccc4ccccc34)c2s1
Second: O=c1[nH]c2c(O)ccc([C@@H](O)CNCCSCCCNCCc3ccccc3Cl)c2s1
The half-life of the first is 4.5-fold lower: 3.5 h for the first, 15.9 h for the second.

`O=c1[nH]c2c(O)ccc([C@@H](O)CNCCSCCCNCCc3ccccc3)c2s1` and `O=c1[nH]c2c(O)ccc([C@@H](O)CNCCSCCCNCCc3cccc(Cl)c3Cl)c2s1` are within 1.5-fold of each other in half-life: 10.8 h for the first, 10.1 h for the second.

First: NC(=O)C(c1ccccc1)(c1ccccc1)[C@@H]1CCN(CCc2ccc3c(c2)CCO3)C1 [DARIFENACIN]
Second: OCc1cc(C(O)CNCCCCCCOCCCCc2ccccc2)ccc1O (centres undefined) [SALMETEROL]
The half-life of the first is 2.6-fold higher: 7.6 h for the first, 2.9 h for the second.

System: not listed separately
Test: physchem
Settings: octanol/phosphate buffer, pH 7.4

Going from `O=c1[nH]c2c(O)ccc([C@@H](O)CNCCCSCCNCCc3cccc(Cl)c3Cl)c2s1` to `O=c1[nH]c2c(O)ccc([C@@H](O)CNCCSCCCNCCc3ccccc3Cl)c2s1`, the logD falls from 1.7 to 1.

Going from `O=c1[nH]c2c(O)ccc([C@@H](O)CNCCCSCCOCCc3ccccc3)c2s1` to `O=c1[nH]c2c(O)ccc([C@@H](O)CNCCCSCCCOCCc3ccccc3)c2s1`, the logD rises from 2.3 to > 2.5.

Compared with `O=c1[nH]c2c(O)ccc([C@@H](O)CNCCCSCCOCCc3cccc4ccccc34)c2s1`, `O=c1[nH]c2c(O)ccc([C@@H](O)CNCCCOCCOCCc3cccc4ccccc34)c2s1` is lower in logD: 3.1 for the first, 2.3 for the second.

Compared with `O=c1[nH]c2c(O)ccc([C@@H](O)CNCCCSCCNCCc3cccc(Cl)c3)c2s1`, `O=c1[nH]c2c(O)ccc([C@@H](O)CNCCCOCCNCCc3cccc(Cl)c3)c2s1` is lower in logD: 1.1 for the first, 0 for the second.

Going from `O=c1[nH]c2c(O)ccc([C@@H](O)CNCCSCCCNCCc3ccccc3)c2s1` to `O=c1[nH]c2c(O)ccc([C@@H](O)CNCCSCCCOCCc3ccccc3)c2s1`, the logD rises from 0.1 to 2.5.

Compared with `CCOc1ccc(CCNCCCSCCNC[C@H](O)c2ccc(O)c3[nH]c(=O)sc23)cc1`, `CCc1ccc(CCNCCCSCCNC[C@H](O)c2ccc(O)c3[nH]c(=O)sc23)cc1` is higher in logD: 0.4 for the first, 0.9 for the second.

Compared with `O=c1[nH]c2c(O)ccc([C@@H](O)CNCC[S+]([O-])CCCNCCc3cccc(Cl)c3)c2s1` (some centres undefined), `O=c1[nH]c2c(O)ccc([C@@H](O)CNCCOCCCNCCc3cccc(Cl)c3)c2s1` is higher in logD: 0.2 for the first, 0.8 for the second.

Compared with `O=c1[nH]c2c(O)ccc([C@@H](O)CNCCSCCCNCCc3cccc(C(F)(F)F)c3)c2s1`, `O=c1[nH]c2c(O)ccc([C@@H](O)CNCCCOCCNCCc3cccc(Cl)c3Cl)c2s1` is lower in logD: 1.2 for the first, 0.6 for the second.

Compared with `O=c1[nH]c2c(O)ccc([C@@H](O)CNCCCOCCOCCc3ccccc3)c2s1`, `O=c1[nH]c2c(O)ccc(CCNCCS(=O)(=O)CCCOCCc3ccccc3)c2s1` [SIBENADET] is higher in logD: 1.1 for the first, 2.6 for the second.

With `OCc1cc(C(O)CNCCCCCCOCCCCc2ccccc2)ccc1O` (centres undefined) [SALMETEROL] the logD was 1.9.
